Measured values as given in patent US20030199558A1, “Hydroxamic acid and its derivatives as inhibitors of melanocyte tyrosinase for topical skin lighteners” (Integriderm, Inc., priority 2001, published 2003).
Converted amounts (≈) assume the structure as drawn. “And” between values parts separate entries of the source, which are not always exact repeats. Equal values may be shown once. Read-outs that look alike come from different tables or passages of the source.

Key:
[1] = system: mammalian melanocyte culture; assay: mammalian melanocyte culture toxicity assay; assay type: cell-based, mouse
From the text: To determine cytotoxicity (and/or cytostasis), crystal violet or other staining methods may be used to quantify adherent cell numbers following a period of treatment by an agent.

[2] = system: Mel Ab melanocyte; assay: mammalian Mel Ab melanocyte culture pigment assay; assay type: cell-based, mouse; settings: read-out: P: concentration of compound that produces 50% inhibition in the mammalian Mel Ab melanocyte culture pigment assay
From the text: (§1) In the present invention, one or more of three in vitro bioassays can be utilized to evaluate the efficacy and toxicity of candidate skin-lightening compounds. The three bioassays characterize the compounds with regard to mammalian tyrosinase enzyme inhibition (cell free), pigmentation in cultured melanocyte cells, and cytotoxicity of mammalian cultured cells. Both cell-based pigmentation and cell-free enzymatic assays have been developed using the mammalian melanocyte cell line, Mel-Ab, a C57BL/6 mouse-derived cell line that produces high levels of melanin. A distinct advantage of this approach is that humans share substantial sequence similarities in their genes (DNA) and proteins (such as tyrosinase) with mice, relative to non-mammalian species (e.g., mushrooms). So, in vitro mouse Mel-Ab melanocytes can serve as adequate surrogates for human melanocytes and Mel-Ab-derived tyrosinase may substitute for the human enzyme for many pharmacologic purposes.
(§2) These adherent murine melanocytes are grown on tissue culture plastic in medium supplemented with fetal bovine serum, 12-O-tetradecanoylphorbol-13-acetate (TPA) to stimulate cell division via down-regulation of protein kinase C, [22, 23] and cholera toxin to stimulate adenylate cyclase activity in the absence of α-MSH. Cellular lysates of Mel-Ab cells may be used as tyrosinase enzyme preparations. Multi-well plate assays have been validated for enzyme inhibition (e.g., DOPA oxidation by calorimetric measurement or radiolabeled substrate incorporation into melanin) and for pigmentation assays on cultured Mel-Ab cells. After 4-6 days of treatment of cultured cells, melanin content is determined using a spectrophotometer at 400+ nm. This assay can detect an apparent loss in pigmentation resulting from either inhibition of de novo synthesis (e.g. via inhibition of tyrosinase, or the adenylate cyclase pathway, or another pathway) or a cytostatic/cytotoxic mechanism. It is therefore a broad primary screen. It is used in parallel with the tyrosinase enzymatic assay to determine whether an inhibitor of pigmentation at the cellular level is acting primarily at the enzyme level.
(§3) Inhibition [μM] as measured in three assays. Here “E” “E” [μM] is the concentration of compound that produces 50% inhibition in the cell-free mammalian tyrosinase enzyme assay is the concentration of compound that produces 50% inhibition in the cell-free mammalian tyrosinase enzyme assay. “P” represents the concentration of compound that produces 50% inhibition in the mammalian Mel Ab melanocyte culture pigment assay system. “T” is the concentration of compound that results in 50% reduction in cell number in the mammalian melanocyte culture toxicity assay system.

[3] = target: T1, mammalian tyrosinase (Mus musculus, UniProt P11344); assay: cell-free mammalian tyrosinase enzyme assay; assay type: biochemical; settings: cell-free enzyme extract; read-out: E: concentration of compound that produces 50% inhibition in the cell-free mammalian tyrosinase enzyme assay
T1 construct: Cellular lysates of Mel-Ab cells may be used as tyrosinase enzyme preparations; endogenous in cells; host or cells: Mel-Ab mouse melanocytes (cell lysate)
T1 sequence (P11344 19-533): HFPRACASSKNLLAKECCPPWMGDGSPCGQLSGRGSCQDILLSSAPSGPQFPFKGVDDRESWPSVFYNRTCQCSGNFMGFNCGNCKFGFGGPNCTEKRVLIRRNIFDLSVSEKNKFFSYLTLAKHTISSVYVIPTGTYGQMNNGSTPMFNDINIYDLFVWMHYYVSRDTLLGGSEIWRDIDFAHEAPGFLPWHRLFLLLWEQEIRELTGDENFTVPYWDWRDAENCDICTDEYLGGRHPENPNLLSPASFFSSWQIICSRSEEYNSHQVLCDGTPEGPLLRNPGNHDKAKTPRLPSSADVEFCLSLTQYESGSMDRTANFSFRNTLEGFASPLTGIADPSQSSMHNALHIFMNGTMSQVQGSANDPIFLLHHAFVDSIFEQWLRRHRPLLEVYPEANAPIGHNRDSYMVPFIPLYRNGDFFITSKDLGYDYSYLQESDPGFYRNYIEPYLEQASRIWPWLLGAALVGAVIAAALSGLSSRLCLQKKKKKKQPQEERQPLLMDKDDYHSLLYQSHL
From the text: as §1, §2
A first class of compounds based upon the template compound benzohydroxamic acid were tested for tyrosinase inhibition by methods described in Curto, E. V., et al. (1999). Results of the tests are given in Examples 1-5.
as §3

[4] = target: T1, mammalian tyrosinase; settings: cited from earlier work
[5] = system: mammalian melanocyte culture; settings: cited from earlier work
[6] = system: Mel Ab melanocyte; settings: cited from earlier work

Structure (SMILES) | T: concentration of compound that results in 50% reduction in cell number in the mammalian melanocyte culture toxicity assay [1] [µM] | IC50 ([2]; Mus musculus, Mel-Ab) [µM] | IC50 [3] [µM] | other results
O=C(NO)c1ccncc1 [ID-245] | 566 | 183 | 3.2 | 
O=C(NO)c1ccccc1O [ID-282, Salicylhydroxamic acid] | 974 |  | 3.7 | 
Nc1ccccc1C(=O)NO [ID-318, 2-Aminobenzohydroxamic acid] | 600 | 431 | 19 | 
O=C(NO)c1ccccc1 [ID-357, Benzohydroxamic acid] | 64 | 64 | 0.82 | 
COc1ccc(C(=O)NO)cc1OC [ID-456, 3,4-Dimethoxybenzohydroxamic acid] | 641 | 576 | 15 | 
COc1ccc(C(=O)N[O-])cc1OC.[K+] [ID-458, Potassium salt of 3,4-dimethoxy-benzohydroxamic acid] | 624 |  | 23 | IC50 [2]: 637 µM
Nc1cccc(C(=O)NO)c1 [ID-461, 3-Aminobenzohydroxamic acid] | >1000 | 225 | 4 | 
COc1ccc(C(=O)NO)c(O)c1 [ID-462] | >1000 | > 1000 | 3.6 | 
CC(=O)c1ccc(O)c(C(=O)NO)c1 [ID-474] | >1000 | > 1000 | 51 | 
Nc1ccc(C(=O)NO)cc1 [ID-476, 4-Aminobenzohydroxamic acid] | 550 | 64 | 0.34 | 
CCCCOc1ccc(C(=O)NO)cc1 [ID-477, 4-Butoxybenzohydroxamic acid] | >554 | 326 | 12 | 
COc1cccc(C(=O)NO)c1 [ID-478, 3-Methoxybenzohydroxamic acid] | 580 | 148 | 0.91 | 
COc1ccc(C(=O)N[O-])cc1.[K+] [ID-479, Potassium salt of 4-methoxybenzohydroxamic acid] | 64 |  | 1.67 | IC50 [2]: 43 µM
COc1ccc(C(=O)NO)cc1 [ID-480, 4-Methoxybenzohydroxamic acid] | 170 | 57 | 1.26 | 
Cc1cccc(C(=O)NO)c1 [ID-481, 3-Methylbenzohydroxamic acid] | 522 | 60 | < 0.25 | 
O=C(NO)c1cccc(Cl)c1 [ID-482, 3-Chlorobenzohydroxamic acid] | 577 | 40 | < 0.25 | 
COc1ccccc1C(=O)NO [ID-483, 2-Methoxybenzohydroxamic acid] | 900 | 807 | 32 | 
CC(=O)Nc1ccccc1C(=O)NO [ID-484, 2-Acetamidobenzohydroxamic acid] | >1000 | > 1000 | > 231 | 
Cc1cccc(C(=O)N(C)O)c1 [ID-485, 3,N-Dimethylbenzohydroxamic acid] | >1000 | > 1000 | 68 | 
CC(=O)Nc1cccc(C(=O)NO)c1 [ID-486, 3-Acetamidobenzohydroxamic acid] | >1000 | 369 | 5.3 | 
Cc1ccc(C(=O)NO)cc1 [ID-497, 4-Methylbenzohydroxamic acid] | 160 | 45 | 0.29 | 
CN(C)c1ccc(C(=O)NO)cc1 [ID-498, 4-Dimethylaminobenzo-hydroxamic acid] | 136 | 44 | 2.2 | 
Cc1ccc(C(=O)NO)cc1N [ID-499, 13-Amino-4-methyl-benzohydroxamic acid] | 747 | 177 | 6.4 | 
O=C(NO)c1cccc(Oc2ccccc2)c1 [ID-500, 3-Phenoxybenzohydroxamic acid] | >300 | 234 | 0.16 | 
Oc1ccc(O)cc1 [hydroquinone] |  |  |  | enzymatic inhibition [4]: minimal enzymatic inhibition; melanocyte cytotoxicity [5]: potent melanocyte cytotoxicity; IC50 on Mel-Ab culture ([6]; positive control, owing to cytotoxicity and not inhibition of pigmentation per se): low micrograms per milliliter range
COC(=O)c1cc(O)ccc1O [methyl gentisate] |  |  |  | IC50 ([4]; Curto et al. (1999), read-out: IC50 against tyrosinase in cell-free assays (converted)): 67 µM and 66.6 µM; melanocyte cytotoxicity IC50 ([5]; Curto et al. (1999)): 118.7 ± 12 µg/mL; IC50 ([5]; Curto et al. (1999), read-out: melanocyte cytotoxicity IC50): 707 µM; IC50 in pigmentation inhibition in melanocyte cell cultures ([6]; Curto et al. (1999)): 30.9 ± 5 µg/mL (≈ 184 µM); IC50 ([6]; Curto et al. (1999), read-out: IC50 in pigmentation inhibition in melanocyte cell cultures): 184 µM
